Assay results reported in the NIST ThermoML archive (doi:10.1016/j.jct.2005.03.002).
Numbers after ± are expanded uncertainties.

Settings: 101.33 kPa, Liquid

CCOS(=O)(=O)[O-].CCn1cc[n+](C)c1 [1-ethyl-3-methylimidazolium ethyl sulfate]
Settings | mass density [kg/m3]
278.2 K | 1243 ± 6.1
288.2 K | 1236.2 ± 6
298.2 K | 1229.6 ± 5.9
308.2 K | 1223 ± 5.8
318.2 K | 1216.2 ± 5.7
328.2 K | 1209.9 ± 5.7
338.2 K | 1203.7 ± 5.6
